Data published in PubChem BioAssay (NCI).
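Results reflect a 48-hour exposure of cells in 96-well plates to compound at five concentrations. Abbreviation: GI50, concentration required for 50% inhibition of growth. At the TGI there is no net growth.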

Key:
Test in all cases: inhibition of tumour cell growth, NCI panel, 48 h
HOP-62 NSCLC = system: HOP-62 NSCLC
HS 578T breast = system: HS 578T breast
T-47D breast = system: T-47D breast
SK-MEL-5 melanoma = system: SK-MEL-5 melanoma
NCI-H23 lung = system: NCI-H23 lung
SNB-75 CNS = system: SNB-75 CNS
A549 NSCLC = system: A549 NSCLC
SF-539 CNS = system: SF-539 CNS
SK-MEL-28 melanoma = system: SK-MEL-28 melanoma
HCC-2998 colon = system: HCC-2998 colon
SF-268 CNS = system: SF-268 CNS
NCI-H460 lung = system: NCI-H460 lung
MALME-3M melanoma = system: MALME-3M melanoma
SNB-19 CNS = system: SNB-19 CNS
DU-145 prostate = system: DU-145 prostate
HCT-15 colon = system: HCT-15 colon
PC-3 prostate = system: PC-3 prostate
RPMI-8226 leukemia = system: RPMI-8226 leukemia
NCI-H226 lung = system: NCI-H226 lung
UO-31 renal = system: UO-31 renal
OVCAR-3 ovarian = system: OVCAR-3 ovarian
OVCAR-5 ovarian = system: OVCAR-5 ovarian
SF-295 CNS = system: SF-295 CNS
MCF7 breast = system: MCF7 breast
HL-60(TB) leukemia = system: HL-60(TB) leukemia
CCRF-CEM leukemia = system: CCRF-CEM leukemia
UACC-62 melanoma = system: UACC-62 melanoma
MDA-MB-435 = system: MDA-MB-435
MDA-MB-231 breast = system: MDA-MB-231 breast

CC1=C(C(=O)Nc2ccccc2)C(c2ccc3ccccc3c2)n2c(nc3ccccc32)N1 (stereo not drawn)
GI50 (HOP-62 NSCLC): 15.4 µM
TGI (HOP-62 NSCLC): 31.6 µM
GI50 (HS 578T breast): 15.6 µM
TGI (HS 578T breast): 57.2 µM
GI50 (T-47D breast): 58.5 µM
TGI (T-47D breast): > 100 µM
GI50 (SK-MEL-5 melanoma): 58.6 µM
TGI (SK-MEL-5 melanoma): > 100 µM
GI50 (NCI-H23 lung): 27.7 µM
TGI (NCI-H23 lung): > 100 µM
GI50 (SNB-75 CNS): 10.4 µM
TGI (SNB-75 CNS): 30.5 µM
GI50 (A549 NSCLC): 13.5 µM
TGI (A549 NSCLC): 33.2 µM
GI50 (SF-539 CNS): 15.5 µM
TGI (SF-539 CNS): 30.4 µM
GI50 (SK-MEL-28 melanoma): 21.2 µM
TGI (SK-MEL-28 melanoma): 56.4 µM
GI50 (HCC-2998 colon): 34 µM
TGI (HCC-2998 colon): > 100 µM
GI50 (SF-268 CNS): 27.3 µM
TGI (SF-268 CNS): > 100 µM
GI50 (NCI-H460 lung): 15 µM
TGI (NCI-H460 lung): 33.6 µM
GI50 (MALME-3M melanoma): 18.3 µM
TGI (MALME-3M melanoma): 40.3 µM
GI50 (SNB-19 CNS): 22.7 µM
TGI (SNB-19 CNS): 59.2 µM
GI50 (DU-145 prostate): 18.2 µM
TGI (DU-145 prostate): 62.3 µM
GI50 (HCT-15 colon): 16.4 µM
TGI (HCT-15 colon): 56.2 µM
GI50 (PC-3 prostate): 12.4 µM
TGI (PC-3 prostate): 31.4 µM
GI50 (RPMI-8226 leukemia): 20 µM
TGI (RPMI-8226 leukemia): > 100 µM
GI50 (NCI-H226 lung): 12.9 µM
TGI (NCI-H226 lung): 34.8 µM
GI50 (UO-31 renal): 12.6 µM
TGI (UO-31 renal): 39.9 µM
GI50 (OVCAR-3 ovarian): 16.4 µM
TGI (OVCAR-3 ovarian): 31.9 µM
GI50 (OVCAR-5 ovarian): 28 µM
TGI (OVCAR-5 ovarian): 95.6 µM
GI50 (SF-295 CNS): 17 µM
TGI (SF-295 CNS): 37.6 µM
GI50 (MCF7 breast): 9.12 µM
TGI (MCF7 breast): 27.7 µM
GI50 (HL-60(TB) leukemia): 13.7 µM
TGI (HL-60(TB) leukemia): > 100 µM
GI50 (CCRF-CEM leukemia): 8.63 µM
TGI (CCRF-CEM leukemia): > 100 µM
GI50 (UACC-62 melanoma): 20.3 µM
TGI (UACC-62 melanoma): 63.5 µM
GI50 (MDA-MB-435): 41.6 µM
TGI (MDA-MB-435): > 100 µM
GI50 (MDA-MB-231 breast): 20.4 µM
TGI (MDA-MB-231 breast): 41.5 µM
